The target in assay [1] is T1, FGF2/heparin interaction (Homo sapiens, UniProt P09038).
T1 construct: made in house
In words: SPR competition: FGF2 binding to surface-immobilized heparin. Particulars: FGF2 150 nM injected over immobilized heparin, read-out: IC50, prevention of FGF2/heparin interaction.
Description: SPR measurements were performed on a BIAcore X instrument (GE-Healthcare, WI). Heparin was immobilized onto the SPR chip as described [30], allowing the immobilization of 80 resonance units (RU) (6.0 fmol/mm^2).
Surface plasmon resonance (SPR) analysis. SPR measurements were performed on a BIAcore X instrument (GE-Healthcare, WI). Heparin was immobilized onto the SPR chip as already described [27]. Briefly, a CMD50L sensorchip (Xantec Bioanalytics, Dusseldorf, Germany) activated with 50 µl of a mixture containing 0.2 M EDC and 0.5 M NHS was coated with streptavidin. Heparin was biotinylated at its reducing end and immobilized onto the streptavidin-coated sensorchip, allowing the immobilization of 80 resonance units (RU) (6.0 fmol/mm^2 of heparin). A streptavidin-coated sensorchip was used as reference and for blank subtraction. […] After every run, the sensorchip was regenerated by injection of HBS containing 2.0 M NaCl.

The target in assay [2] is T2, FGF2/FGFR1 interaction (Homo sapiens, UniProt P09038).
T2 construct: purchased ReliaTech
In words: SPR competition: FGF2 binding to substrate-immobilized FGFR1. Conditions: FGF2 150 nM injected over immobilized FGFR1, read-out: ID50, prevention of FGF2/FGFR1 interaction. The method, then: (§1) Each point is the mean ± SEM of 3 separate experiments. […] C) Binding of Eu-FGF2 to endothelial cells (BAEC). […] After 2 h of incubation at 298K, the cells bound to the monolayer were counted under an inverted microscope. Each point is the mean ± SEM of 3 separate experiments performed in triplicate. In B and C, black and white arrows indicate the inhibitions obtained with heparin (0.1 µg/ml) and unlabeled FGF2 (1.5 µg/ml) used as reference competitor of HSPGs and FGFR1 binding, respectively
SPR measurements were performed on a BIAcore X instrument (GE-Healthcare, WI). Heparin was immobilized onto the SPR chip as described, allowing the immobilization of 80 resonance units (RU) (6.0 fmol/mm^2). Immobilization of FGFR (13,800 RU, 42.0 fmol/mm^2), is described in the Supporting Information S1. Sensorchips coated with streptavidin or FGF-unrelated noggin protein were used for blank subtraction (respectively for heparin and FGFR-1).
Surface plasmon resonance (SPR) analysis. SPR measurements were performed on a BIAcore X instrument (GE-Healthcare, WI). Heparin was immobilized onto the SPR chip as already described. Briefly, a CMD50L sensorchip (Xantec Bioanalytics, Dusseldorf, Germany) activated with 50 µl of a mixture containing 0.2 M EDC and 0.5 M NHS was coated with streptavidin. […]

For assay [3], the target named is T3, HSPGs on CHO-K1 cells (Homo sapiens, UniProt P09038).
T3 construct: endogenous in cells; host or cells: CHO-K1
T3 sequence (P09038 134-288): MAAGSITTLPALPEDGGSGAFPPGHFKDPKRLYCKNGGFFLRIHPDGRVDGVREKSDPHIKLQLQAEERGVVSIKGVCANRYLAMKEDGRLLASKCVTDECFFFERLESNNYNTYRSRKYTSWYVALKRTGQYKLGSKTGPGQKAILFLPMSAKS
In words: Binding of Eu-FGF2 to wild-type CHO-K1 cells (expressing HSPGs but not FGFR1). In kind it is cell-based. The method, then: (§2) It was possible to discriminate between FGF2 bound to HSPGs low affinity receptors and FGF2 bound to the high affinity FGFR1, following a previously reported procedure.
(§3) Binding to low and high affinity receptors was analyzed according to [31].
(§4) Binding of FGF2 to cells. Europium-labeled FGF2 (Eu-FGF2) was prepared as previously described. Endothelial cells (BAEC), naturally expressing both HSPGs and FGFR1, CHO-K1 and FGFR1-expressing A745 CHO cells were used. Subconfluent cell cultures in 96-well plates were washed and incubated for 30 min at 277K in serum-free DMEM with 0.15% gelatin and 25mM HEPES (DMEM-gelatin). […] The plate was incubated for 2 h at 277K. Wells were washed with cold DMEM-gelatin to remove unbound FGF2, and the amount of total bound FGF2 was detected by adding DELFIA^? Enhancement Solution (100 µl, PerkinElmer), and measuring time resolved fluorescence using a Victor^3 multilabel plate reader (PerkinElmer), as described.

For assay [4], the target named is T4, FGFR1 on A745 CHO flg-1A cells (Homo sapiens, UniProt P09038).
T4 construct: expressed in transfected cells; host or cells: A745 CHO (HSPG-deficient), clone flg-1A
T4 sequence (P09038 134-288): as above
In words: Binding of Eu-FGF2 to FGFR1-transfected A745 CHO flg-1A cells (HSPG-deficient). It is filed as cell-based, murine. As to the method: as §2, §3
Cell cultures. Wild-type CHO-K1 cells and the derived HSPG-deficient A745 CHO cell mutants, kindly provided by J. D. Esko (La Jolla, CA), were grown in Ham's F-12 medium supplemented with 10% fetal calf serum (FCS). […] Bovine aortic endothelial cells (BAEC) [30]were cultured in DMEM supplemented with 10% FCS.
as §4

Assay [5] has as its target T5, HSPGs low affinity receptors on BAEC (Homo sapiens, UniProt P09038).
T5 construct: endogenous in cells; host or cells: BAEC
In words: Binding of Eu-FGF2 to endothelial cells (BAEC), low affinity receptors. In kind it is cell-based, bovine. Particulars: Eu-FGF2 10 ng/ml. The method, then: as §2, §3, §4

Assay [6] has as its target T6, high affinity FGFR1 on BAEC (Homo sapiens, UniProt P09038).
T6 construct: endogenous in cells; host or cells: BAEC
Put plainly: Binding of Eu-FGF2 to endothelial cells (BAEC), high affinity receptors. In kind it is cell-based, bovine. Particulars: Eu-FGF2 10 ng/ml, after 2 M NaCl wash. As to the method: as §2, §3, §4

The target of assay [7] is T7, FGF2/FGFR1/HSPGs complex (Homo sapiens, UniProt P09038).
T7 construct: expressed in transfected cells; host or cells: A745 CHO flg-1A cells on fixed CHO-K1 monolayer
T7 sequence (P09038 134-288, one chain of several): as the sequence (P09038 134-288) above
Put plainly: FGF2-mediated cell-cell adhesion assay (A745 CHO flg-1A cells on CHO-K1 monolayer). It is filed as cell-based. Particulars: FGF2 1.66 nM, 2 h incubation, serum-free medium; read-out: ID50, inhibition of FGF2-mediated cell-cell adhesion. As to the method:
as §1
To exert its pro-angiogenic activity, FGF2 needs to set up a productive, ternary complex with HSPGs and FGFR1 [32].
Data are mean bound cells in three random microscopic fields.
FGF2-mediated cell-cell adhesion assay: This assay was performed as described previously, with minor modifications. Briefly, monolayers of wild-type CHO-K1 cells were washed with PBS and fixed with 3% glutaraldehyde in PBS for 2 h at 277K followed by washing with 0.1 M glycine, and PBS. […] After 2 h of incubation at 310K, unattached cells were removed by PBS washing and A745 CHO flg-1A cells bound to the CHO-K1 monolayer were counted under an inverted microscope at ×125 magnification. Data are expressed as the mean of the cell counts of three microscopic fields chosen at random. All experiments were performed in triplicate and repeated twice.

For assay [8], the target named is T8, FGF2 (Homo sapiens, UniProt P09038, A136E/C211S/C229S/S138E).
T8 construct: purchased ASLA (Riga, Latvia)
T8 sequence (P09038 134-288 A136E/S138E/C211S/C229S): as the sequence (P09038 134-288) above, with A3E, S5E, C78S, C96S counted along it
In words: NMR 15N-1H HSQC titration of sm27 into FGF2. Conditions: 0:1 to 4:1 sm27:FGF2, pH 5.5, 298 K. It is filed as binding.
Description: All NMR data were collected on a Bruker DMX 500 MHz spectrometer at 298 K.
NMR samples contained 0.57 mM ^15N-labeled FGF2, dissolved in a buffer containing 50 mM potassium phosphate, 2 mM NaN3, and 10 mM deuterated DTT in 90% H2O/10% D2O, pH 5.5. […] At molar ratios higher than 1:1, partial sample precipitation was observed, till full sample precipitation at nominal 4:1 ratio. […] Due to the precipitation it was not possible to reach the plateau of the titration and to estimate the real stoichiometric ratio at each step.

In assay [9] the test system is endothelial cells. On the set-up: method as in PMID 20056600. Particulars: cited from earlier work.
The subject of assay [10] is endothelial cells. On the set-up: method as in PMID 20056600. Conditions: cited from earlier work. The source holds these as a separate data set.
Assay [11] relates to chicken chorioallantoic membrane. On the set-up: method as in PMID 20056600. Conditions: chicken chorioallantoic membrane assay; cited from earlier work.

T2 sequence (P09038 134-288): as the sequence (P09038 134-288) above
T1 sequence (P09038 134-288): as above
T6 sequence (P09038 134-288): as above
T5 sequence (P09038 134-288): as above

Consider `O=C(Nc1ccc2cc(S(=O)(=O)O)cc(O)c2c1)Nc1ccc2cc(S(=O)(=O)O)cc(O)c2c1` [sm27, 4-hydroxy-6-((((8-hydroxy-6-sulfo-2-naphthyl)amino)carbonyl)amino)-2-naphthalenesulfonic acid], for which the IC50 in [1] was found to be 3.5 µM; in assay [2] it was 4 µM; in assay [7] it was 1 µM. Further, in assay [3] (Eu-FGF2 10 ng/ml), the “Effect on Eu-FGF2 binding to HSPGs” value is “inhibited”. Also, the “Effect on Eu-FGF2 binding to FGFR1” value in assay [4] (A745 CHO flg-1A cells, Eu-FGF2 10 ng/ml) is “inhibited”. Moreover, in assay [5], the “Effect on FGF2 binding to HSPGs low affinity receptors” value is given as “inhibited”. The “Effect on FGF2 binding to high affinity FGFR1” value in [6] is “inhibited”. Besides, the “Binding to FGF2 judged from the NMR titration (exchange regime)” value in assay [8] is “weak binding”. In addition, in assay [9], the “Effect on binding of FGF2 to endothelial cells” value is “prevented”. Also, the “Effect on FGF2-induced endothelial cell proliferation” value in assay [10] is given as “inhibited”. The “Effect on FGF2-induced angiogenesis” value in [11] is given as “inhibited”.
On to heparin [reference compound], for which the “Effect of reference competitor on Eu-FGF2 binding to HSPGs” value in assay [3] (heparin 0.1 µg/ml) is “inhibitory activity”.
As for “unlabelled FGF2: Human recombinant FGF2, unlabeled, reference competitor of FGFR1 binding [reference compound]”, the “Effect of reference competitor on Eu-FGF2 binding to FGFR1” value in assay [4] (FGFR1-CHO cells, unlabeled FGF2 1.5 µg/ml) is given as “inhibitory activity”.
